Measured values published in ChEMBL document CHEMBL1142214, “Synergistic interaction between phenothiazines and antimicrobial agents against Burkholderia pseudomallei” (2007).
In brackets after ≈: the same amount, converted by molar mass.

What was measured:
Type in all cases: functional
[1] = tested on: Burkholderia pseudomallei; assay: Antimicrobial activity against Burkholderia pseudomallei KHW in presence of 3.9 uM prochlorperazine
[2] = tested on: Burkholderia pseudomallei; assay: Antimicrobial activity against Burkholderia pseudomallei KHW in presence of 62.5 uM omeprazole
[3] = tested on: Burkholderia pseudomallei; assay: Antimicrobial activity against Burkholderia pseudomallei KHW in presence of 1000 uM omeprazole
[4] = tested on: Burkholderia pseudomallei; assay: Antimicrobial activity against Burkholderia pseudomallei KHW in presence of 15.6 uM prochlorperazine
[5] = tested on: Burkholderia pseudomallei; assay: Antimicrobial activity against Burkholderia pseudomallei KHW in presence of 7.8 uM prochlorperazine
[6] = tested on: Burkholderia pseudomallei; assay: Antimicrobial activity against Burkholderia pseudomallei KHW in presence of 7.8 uM promazine
[7] = tested on: Burkholderia pseudomallei; assay: Antimicrobial activity against Burkholderia pseudomallei KHW in presence of 500 uM chlorpromazine
[8] = tested on: Burkholderia pseudomallei; assay: Antimicrobial activity against Burkholderia pseudomallei KHW in presence of 500 uM prochlorperazine
[9] = tested on: Burkholderia pseudomallei; assay: Antimicrobial activity against Burkholderia pseudomallei KHW in presence of 7.8 uM omeprazole
[10] = tested on: Burkholderia pseudomallei; assay: Antimicrobial activity against Burkholderia pseudomallei KHW in presence of 125 uM chlorpromazine
[11] = tested on: Burkholderia pseudomallei; assay: Antimicrobial activity against Burkholderia pseudomallei KHW in presence of 15.6 uM omeprazole
[12] = tested on: Burkholderia pseudomallei; assay: Antimicrobial activity against Burkholderia pseudomallei KHW
[13] = tested on: Burkholderia pseudomallei; assay: Antimicrobial activity against Burkholderia pseudomallei KHW in presence of 3.9 uM omeprazole
[14] = tested on: Burkholderia pseudomallei; assay: Antimicrobial activity against Burkholderia pseudomallei KHW in presence of 3.9 uM promazine
[15] = tested on: Burkholderia pseudomallei; assay: Antimicrobial activity against Burkholderia pseudomallei KHW in presence of 1000 uM chlorpromazine
[16] = tested on: Burkholderia pseudomallei; assay: Antimicrobial activity against Burkholderia pseudomallei KHW in presence of 31.3 uM omeprazole
[17] = tested on: Burkholderia pseudomallei; assay: Antimicrobial activity against Burkholderia pseudomallei KHW in presence of 31.3 uM prochlorperazine
[18] = tested on: Burkholderia pseudomallei; assay: Antimicrobial activity against Burkholderia pseudomallei KHW in presence of 250 uM promazine
[19] = tested on: Burkholderia pseudomallei; assay: Antimicrobial activity against Burkholderia pseudomallei KHW in presence of 7.8 uM chlorpromazine
[20] = tested on: Burkholderia pseudomallei; assay: Antimicrobial activity against Burkholderia pseudomallei KHW in presence of 3.9 uM chlorpromazine
[21] = tested on: Burkholderia pseudomallei; assay: Antimicrobial activity against Burkholderia pseudomallei KHW in presence of 31.3 uM promazine
[22] = tested on: Burkholderia pseudomallei; assay: Antimicrobial activity against Burkholderia pseudomallei KHW in presence of 15.6 uM chlorpromazine
[23] = tested on: Burkholderia pseudomallei; assay: Antimicrobial activity against Burkholderia pseudomallei KHW in presence of 62.5 uM promazine
[24] = tested on: Burkholderia pseudomallei; assay: Antimicrobial activity against Burkholderia pseudomallei KHW in presence of 1000 uM promazine
[25] = tested on: Burkholderia pseudomallei; assay: Antimicrobial activity against Burkholderia pseudomallei KHW in presence of 15.6 uM promazine
[26] = tested on: Burkholderia pseudomallei; assay: Antimicrobial activity against Burkholderia pseudomallei KHW in presence of 1000 uM prochlorperazine
[27] = tested on: Burkholderia pseudomallei; assay: Antimicrobial activity against Burkholderia pseudomallei KHW in presence of 125 uM omeprazole
[28] = tested on: Burkholderia pseudomallei; assay: Antimicrobial activity against Burkholderia pseudomallei KHW in presence of 500 uM omeprazole
[29] = tested on: Burkholderia pseudomallei; assay: Antimicrobial activity against Burkholderia pseudomallei KHW in presence of 250 uM prochlorperazine
[30] = tested on: Burkholderia pseudomallei; assay: Antimicrobial activity against Burkholderia pseudomallei KHW in presence of 500 uM promazine
[31] = tested on: Burkholderia pseudomallei; assay: Antimicrobial activity against Burkholderia pseudomallei KHW in presence of 31.3 uM chlorpromazine
[32] = tested on: Burkholderia pseudomallei; assay: Antimicrobial activity against Burkholderia pseudomallei KHW in presence of 62.5 uM chlorpromazine
[33] = tested on: Burkholderia pseudomallei; assay: Antimicrobial activity against Burkholderia pseudomallei KHW in presence of 125 uM prochlorperazine
[34] = tested on: Burkholderia pseudomallei; assay: Antimicrobial activity against Burkholderia pseudomallei KHW in presence of 62.5 uM prochlorperazine
[35] = tested on: Burkholderia pseudomallei; assay: Antimicrobial activity against Burkholderia pseudomallei KHW in presence of 250 uM chlorpromazine
[36] = tested on: Burkholderia pseudomallei; assay: Antimicrobial activity against Burkholderia pseudomallei KHW in presence of 125 uM promazine
[37] = tested on: Burkholderia pseudomallei; assay: Antimicrobial activity against Burkholderia pseudomallei KHW in presence of 250 uM omeprazole

SMILES	MIC [1] [µg/mL]	MIC [2] [µg/mL]	MIC [3] [µg/mL]	MIC [4] [µg/mL]	MIC [5] [µg/mL]	MIC [6] [µg/mL]	MIC [7] [µg/mL]	MIC [8] [µg/mL]	MIC [9] [µg/mL]	MIC [10] [µg/mL]	MIC [11] [µg/mL]	MIC [12] [µg/mL]	MIC [13] [µg/mL]	MIC [14] [µg/mL]	MIC [15] [µg/mL]	MIC [16] [µg/mL]	MIC [17] [µg/mL]	MIC [18] [µg/mL]	MIC [19] [µg/mL]	MIC [20] [µg/mL]	also measured
CN[C@@H]1[C@H](O[C@H]2[C@H](O[C@H]3[C@H](O)[C@@H](O)[C@H](N=C(N)N)[C@@H](O)[C@@H]3N=C(N)N)O[C@@H](C)[C@]2(O)C=O)O[C@@H](CO)[C@H](O)[C@H]1O [STREPTOMYCIN]	1020	1020	< 0.25	1020	1020	1020	< 0.25	256	1020	1020	1020	1020 (≈ 1760 µM)	1020	1020	< 0.25	1020	1020	1020	1020	1020	MIC [21]: 1020 µg/mL; MIC [22]: 1020 µg/mL; MIC [23]: 1020 µg/mL; MIC [24]: 0.5 µg/mL; MIC [25]: 1020 µg/mL; MIC [26]: 256 µg/mL; MIC [27]: 1020 µg/mL; MIC [28]: 1020 µg/mL; MIC [29]: 512 µg/mL; MIC [30]: 516 µg/mL; MIC [31]: 1020 µg/mL; MIC [32]: 1020 µg/mL; MIC [33]: 1020 µg/mL; MIC [34]: 1020 µg/mL; MIC [35]: 1020 µg/mL; MIC [36]: 1020 µg/mL; MIC [37]: 1020 µg/mL
CO[C@H]1C[C@H](O[C@H]2[C@H](C)[C@@H](O[C@@H]3O[C@H](C)C[C@H](N(C)C)[C@H]3O)[C@@H](C)C[C@@]3(CO3)C(=O)[C@H](C)[C@@H](O)[C@@H](C)[C@@H](C)OC(=O)[C@@H]2C)O[C@@H](C)[C@@H]1O [OLEANDOMYCIN]	> 2000	> 2000	< 0.25	512	> 2000	> 2000	128	64	> 2000	512	> 2000	> 2000	> 2000	> 2000	< 0.25	> 2000	512	> 2000	> 2000	> 2000	MIC [21]: > 2000 µg/mL; MIC [22]: > 2000 µg/mL; MIC [23]: > 2000 µg/mL; MIC [24]: 0.5 µg/mL; MIC [25]: > 2000 µg/mL; MIC [26]: 64 µg/mL; MIC [27]: > 2000 µg/mL; MIC [28]: > 2000 µg/mL; MIC [29]: 128 µg/mL; MIC [30]: 256 µg/mL; MIC [31]: > 2000 µg/mL; MIC [32]: 1020 µg/mL; MIC [33]: 256 µg/mL; MIC [34]: 256 µg/mL; MIC [35]: 256 µg/mL; MIC [36]: > 2000 µg/mL; MIC [37]: > 2000 µg/mL
CC[C@H]1OC(=O)[C@H](C)[C@@H](O[C@H]2C[C@@](C)(OC)[C@@H](O)[C@H](C)O2)[C@H](C)[C@@H](O[C@@H]2O[C@H](C)C[C@H](N(C)C)[C@H]2O)[C@](C)(O)C[C@@H](C)CN(C)[C@H](C)[C@@H](O)[C@]1(C)O [AZITHROMYCIN]	32	32	16	32	32	32	8	< 0.25	32	16	32	32 (≈ 42.7 µM)	32	32	< 0.25	32	32	32	32	32	MIC [21]: 32 µg/mL; MIC [22]: 32 µg/mL; MIC [23]: 32 µg/mL; MIC [24]: < 0.25 µg/mL; MIC [25]: 32 µg/mL; MIC [26]: < 0.25 µg/mL; MIC [27]: 32 µg/mL; MIC [28]: 16 µg/mL; MIC [29]: < 0.25 µg/mL; MIC [30]: 16 µg/mL; MIC [31]: 32 µg/mL; MIC [32]: 32 µg/mL; MIC [33]: 16 µg/mL; MIC [34]: 32 µg/mL; MIC [35]: 16 µg/mL; MIC [36]: 32 µg/mL; MIC [37]: 32 µg/mL
